Measured values taken from patent publication US20190374158A1, “SYSTEM AND METHOD FOR MONITORING AND CONTROLLING A STATE OF A PATIENT DURING AND AFTER ADMINISTRATION OF […]” (The General Hospital Corporation, priority 2012, published 2019).

What was measured:
[1] = two-compartment pharmacokinetics model estimation, rat models; parameters: species or system rats; conditions: for σ scaling factor of infusion rate: rat two-compartment model; for K12 rate constant: rat two-compartment model fit to Vijn and Sneyd BSR time courses after 10-second bolus (8 mg kg^−1 propofol, 3.5 mg kg^−1 etomidate)
Source text: In one clinical application, the control target may be to achieve and maintain a target BSR corresponding to medical coma, thereby maintaining an equilibrium effect-site concentration. To design a suitable but not overly-complex model, it may be assumed that, due to the time lag between central compartment drug infusion and effect-site concentration increase, there must be at least two compartments to accurately model the evolution of the drug concentrations. Such a simplified two-compartment model is composed of the central plasma compartment and the auxiliary effect-site compartment connected by a first-order transfer process, ignoring any other peripheral drug distribution compartments.
The pharmacokinetic model in FIG. 9A can be described by the second-order linear differential equation system: […]
for an infusion rate of ut, in units of μg/s, scaled by a factor of σ. The kinetic rate constants k12 and k21 govern the drug flow between compartments, while the rate constant k10 determines the rate of the drug's clearance from the central compartment. The slow peripheral compartment and fast peripheral compartment, common in many population models, are not included.
These estimated parameters were used to design the closed-loop controller (see below) in order to yield a critically damped system response, that is, the fastest rise times without overshoot.
For the human models, existing population pharmacokinetic models were calibrated for a 180-cm, 70-kg person. […] Since a patient may not enter a state of burst suppression the instant the effect-site concentration is nonzero, the concentration trace was shifted negatively and transformed to pt such that the patient peaked at a BSP of 0.7, and came out of burst suppression 7 minutes after the initiation of the dose. […] Anesthesiology 65: 19-27, which is incorporated herein by reference, was used to numerically evaluate the effect-site concentration during and after a 10-second bolus of […].
Matlab's Optimization Toolbox was used to optimize these four parameters of the pharmacokinetic model to minimize this mean squared error, and yield an estimate of the best-fit rate constants and scaling factor.

burst suppression [2] = conditions: patient after propofol bolus induction
Source text: Typically, in the operating room, a bolus dose of an anesthetic is rapidly administered to induce general anesthesia. It is often the case that the patient enters burst suppression within seconds and might remain in that state for several minutes. Since the efficiency of the drug depends on several empirical factors, it is relevant to monitor the level of suppression that is reached and its trajectory, which may help detect any anomaly, or tune the subsequent doses or levels of anesthesia.
The EEG was recorded from a scalp electrode at the FP1 site referenced to the FZ electrode of the standard electrode configuration. […] The choice of Δ=250 corresponds to a resolution of one second as in the previous case.

[3] = tested on: dopaminergic arousal pathway; conditions: cited from earlier work
burst suppression [4] = test: physostigmine effect on stable burst suppression, rat EEG; type: in vivo, Sprague-Dawley rat; conditions: rat deeply anesthetized with 2% isoflurane
Source text: The following description is with respect to an analysis of a rat under general anesthesia-induced burst suppression The BSP is compared to the BSR in order to illustrate its benefits. For the experiments described herein, signals were first band pass filtered between 5 and 30 Hz. The filtered signals were thresholded and suppression segments less than 500 milliseconds in duration were switched to 1. The binary series was then provided as an input to the BSP algorithm.
The BSP algorithm was evaluated on a rat EEG signal recorded to test whether physostigmine, a cholinergic agonist hypothesized to increase arousal, causes the burst suppression pattern observed during deep anesthesia to switch into continuous activity (associated with increased arousal). In this experiment, it is advantageous to know whether physostigmine, and not saline (control), induces a shift from burst suppression (deep anesthesia) to a delta wave pattern (lighter anesthesia). In case it does, it is desirable characterize the temporal dynamics of that change.
A rat pre-implanted with extradural EEG electrodes was deeply anesthetized with 2% isoflurane. After stabilization of the inhaled concentration, the EEG signal, was recorded for 10 minutes prior to a saline intravenous injection (control). Six minutes later, physostigmine was injected and the recording was maintained for an additional thirty minutes. […]

[5] = rat two-compartment model fit to Vijn and Sneyd BSR time courses after 10-second bolus

Source text for alpha (8-13 Hz) power: 14 patients were implanted with iEEG electrode arrays as part of standard clinical treatment for intractable epilepsy. The arrays included linear penetrating depth arrays having 6-8 electrodes, subdural grid arrays having 16-64 electrodes, and/or subdural strip arrays having 4-16 electrodes (Adtech Medical, Racine, Wis.) (FIG. 21). Surface EEG electrodes were additionally applied to six patients in a subset of the standard 10-20 EEG configuration. Electrode placement was selected by the patients' clinicians without regard to the current study. […] Recordings were obtained during electrode explant surgery that occurred after 1-3 weeks of inpatient monitoring to determine epileptogenic foci. Signal acquisition began prior to induction of general anesthesia and continued until the electrodes were disconnected for explant. EEG and iEEG signals were recorded with a sampling rate of a 2000, 500, or 250 Hz depending on settings of the hospital's clinical acquisition system. Signals were digitized with hardware amplifiers (XLTEK, Natus Medical, Inc., San Carlos, Calif.) that bandpassed between 0.3 Hz and the sampling rate, and were stored on a computer (Dell) for offline processing.
Drug protocols were selected by the patients' clinicians without regard to the current study.
Patients were delivered auditory stimuli through headphones (prerecorded words and the patient's name) approximately every 4 seconds during the task, and were instructed to respond with a button click. Responses were recorded using stimulus presentation software (Presentation, Neurobehavioral Systems, Inc., Albany, Calif., or EPrime, Psychology Software Tools, Inc., Sharpsburg, Pa.). […] This patient was excluded from group analyses of peri-LOC dynamics.
In each subject, two epochs were distinguished over the recording period. […] We used visual inspection to identify the postinduction epoch. […] Burst suppression intervals were excluded to avoid the confound of low-power suppression intervals in group analyses, which differed in total time across patients. […]

**Q.** Which “σ scaling factor of infusion rate” value [1] does the source give for CCOC(=O)c1cncn1[C@H](C)c1ccccc1 [Etomidate] here?
**A.** 0.8394

**Q.** And the K21 rate constant [1, 5]?
**A.** 0.6703 min⁻¹

**Q.** What about the K12 rate constant [1] of the same compound?
**A.** 0.01547 min⁻¹

**Q.** What does the source list for CC(C)c1cccc(C(C)C)c1O [Propofol, 2,6-di-isopropylphenol]?
**A.** σ scaling factor of infusion rate [1]: 0.5885; K10 rate constant (clearance from central compartment) [1, 5]: 4.552 min⁻¹; K21 rate constant [1, 5]: 0.9599 min⁻¹; K12 rate constant [1]: 0.01557 min⁻¹; BSP reached after slow second increase (burst suppression [2]): around 0.7; BSP, binary filter estimate, at minute 2 (burst suppression [2]): around 0.5; BSP, binary filter estimate, decrease after minute 2 (burst suppression [2]): around 0.2; BSP, smoother estimate, at minute 2 (burst suppression [2]): ~0.6; BSP, smoother estimate, decrease after minute 2 (burst suppression [2]): ~0.1; duration of burst suppression (burst suppression [2]): about 8 minutes; time after LOC to abrupt suppression of alpha power (alpha (8-13 Hz) power; Patient 9, occipital and temporal channels): ≤ 10 s; increase of median alpha power in the postinduction period (alpha (8-13 Hz) power; hippocampus, cingulate cortex, medial white matter electrodes): approximately 5 dB; change of alpha power in the postinduction period (alpha (8-13 Hz) power; occipital, parietal, inferotemporal cortex and primary auditory cortex): consistently decreased

**Q.** For COC(=O)C(c1ccccc1)C1CCCCN1 (centres unmarked) [methylphenidate], which “emergence from general anesthesia” value ([3]; isoflurane general anesthesia) is on record?
**A.** actively induces emergence from isoflurane general anesthesia

**Q.** And the minute ventilation ([3]; plethysmography and blood gas experiments)?
**A.** increases minute ventilation

**Q.** Which “time out of suppression after injection” value (burst suppression [4]) does the source give for CNC(=O)Oc1ccc2c(c1)[C@]1(C)CCN(C)[C@@H]1N2C [physostigmine] here?
**A.** around 10 minutes

**Q.** What about the BSP after injection (burst suppression [4]; baseline BSP around 0.5) of the same compound?
**A.** 0
